The values that follow come from US20260144788A1, “COMPOUND FOR SHP2 PROTEIN DEGRADATION AND MEDICAL USES THEREOF” (UBIX THERAPEUTICS, INC., priority 2022, published 2026).

The target in the assay is T1, SHP2 protein (Homo sapiens, UniProt Q06124).
T1 sequence (Q06124 1-593): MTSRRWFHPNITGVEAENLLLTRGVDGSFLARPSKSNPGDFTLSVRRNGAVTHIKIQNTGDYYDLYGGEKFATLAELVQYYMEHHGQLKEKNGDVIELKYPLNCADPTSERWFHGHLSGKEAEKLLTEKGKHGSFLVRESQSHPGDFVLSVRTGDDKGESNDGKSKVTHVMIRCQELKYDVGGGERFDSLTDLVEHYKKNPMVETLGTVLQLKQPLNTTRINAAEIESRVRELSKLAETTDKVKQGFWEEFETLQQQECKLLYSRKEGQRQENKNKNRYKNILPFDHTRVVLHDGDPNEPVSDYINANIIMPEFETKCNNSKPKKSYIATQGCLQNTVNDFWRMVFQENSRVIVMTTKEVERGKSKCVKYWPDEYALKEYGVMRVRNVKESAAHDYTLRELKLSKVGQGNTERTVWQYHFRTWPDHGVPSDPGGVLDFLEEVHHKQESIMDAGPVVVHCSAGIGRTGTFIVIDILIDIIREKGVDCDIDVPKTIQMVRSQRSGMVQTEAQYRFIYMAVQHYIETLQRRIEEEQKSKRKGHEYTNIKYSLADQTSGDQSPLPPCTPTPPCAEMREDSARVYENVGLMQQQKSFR
In words: Measurement of SHP2 protein degradation in NCI-H358 cells (western blotting). The following applies: harvested after 24 hours. The class given is cell-based. Set-up: endogenous in cells; host or cells: NCI-H358. Summed up:
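H358 cells in RPMI1640/25 mM HEPES/10% FBS, cultured 24 h, then exposed to compound at final 0.001, 0.01 and 0.1 μM for 24 h against a DMSO control. Lysates were normalised for protein by BCA and probed by western blot for SHP2, with GAPDH as loading control.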

Turning to `CC(=O)N[C@H](C(=O)N1C[C@H](O)C[C@H]1C(=O)NCc1ccc(-c2scnc2C)cc1OC1CCN(C(=O)C2CCN(c3nccc(Sc4cnc(N5CCC(C)(CN)CC5)cn4)c3Cl)CC2)CC1)C1CC1` [Example 91, (2S,4R)-1-((S)-2-acetamido-2-cyclopropylacetyl)-N-(2-((1-(1-(4-((5-(4-(aminomethyl)-4-methylpiperidin-1-yl)pyrazin-2-yl)thio)-3-chloropyridin-2-yl)piperidine-4-carbonyl)piperidin-4-yl)oxy)-4-(4-methylthiazol-5-yl)benzyl)-4-hydroxypyrrolidine-2-carboxamide], the SHP2% degradation reads like this: (0.01 μM) 53.2%; (0.1 μM) 98.5%.
In the case of `Cc1cnn(C(C(=O)N2C[C@H](O)C[C@H]2C(=O)NCc2ccc(-c3scnc3C)cc2OC2CCN(C(=O)C3CCN(c4nccc(Sc5cnc(N6CCC(C)(CN)CC6)cn5)c4Cl)CC3)CC2)C(C)C)c1` (stereo partly drawn) [Example 100, (2S,4R)—N-(2-((1-(1-(4-((5-(4-(aminomethyl)-4-methylpiperidin-1-yl)pyrazin-2-yl)thio)-3-chloropyridin-2-yl)piperidine-4-carbonyl)piperidin-4-yl)oxy)-4-(4-methylthiazol-5-yl)benzyl)-4-hydroxy-1-(3-methyl-2-(4-methyl-1H-pyrazol-1-yl)butanoyl)pyrrolidine-2-carboxamide], the SHP2% degradation is, setting by setting: (0.01 μM) −65.7%; (0.1 μM) −18.7%.
The corresponding values for `Cc1ncsc1-c1ccc(CNC(=O)[C@@H]2C[C@@H](O)CN2C(=O)[C@@H](NC(=O)C2(F)CC2)C(C)(C)C)c(O[C@H]2CC[C@H](C(=O)N3CC(Nc4cccc(Sc5cnc(N6CCC7(CC6)Cc6ncccc6[C@H]7N)cn5)c4Cl)C3)CC2)c1` [Example 15, (2S,4R)—N-(2-(((1R,4S)-4-(3-((3-((5-((S)-5-amino-5,7-dihydrospiro[cyclopenta[b]pyridine-6,4′-piperidin]-1′-yl)pyrazin-2-yl)thio)-2-chlorophenyl)amino)azetidine-1-carbonyl)cyclohexyl)oxy)-4-(4-methylthiazol-5-yl)benzyl)-1-((S)-2-(1-fluorocyclopropane-1-carboxamido)-3,3-dimethylbutanoyl)-4-hydroxypyrrolidine-2-carboxamide] are 93.5% and 99.6%.
For `CC(=O)N[C@H](C(=O)N1C[C@H](O)C[C@H]1C(=O)NCc1ccc(-c2scnc2C)cc1OC1CCN(C(=O)C2CCN(c3nccc(Sc4nc(CO)c(N5CCC(C)(CN)CC5)nc4C)c3Cl)CC2)CC1)C(C)(C)C` [Example 81, (2S,4R)-1-((S)-2-acetamido-3,3-dimethylbutanoyl)-N-(2-((1-(1-(4-((5-(4-(aminomethyl)-4-methylpiperidin-1-yl)-6-(hydroxymethyl)-3-methylpyrazin-2-yl)thio)-3-chloropyridin-2-yl)piperidine-4-carbonyl)piperidin-4-yl)oxy)-4-(4-methylthiazol-5-yl)benzyl)-4-hydroxypyrrolidine-2-carboxamide], the SHP2% degradation runs as follows: (0.01 μM) 85.6%; (0.1 μM) 99.6%.
For `Cc1ncsc1-c1ccc(CNC(=O)[C@@H]2C[C@@H](O)CN2C(=O)[C@H](C(C)C)n2cc(C3CC3)nn2)c(OC2CCN(C(=O)C3CCN(c4nccc(Sc5cnc(N6CCC(C)(N)CC6)c(CO)n5)c4Cl)CC3)CC2)c1` [Example 105, (2S,4R)—N-(2-((1-(1-(4-((5-(4-amino-4-methylpiperidin-1-yl)-6-(hydroxymethyl)pyrazin-2-yl)thio)-3-chloropyridin-2-yl)piperidine-4-carbonyl)piperidin-4-yl)oxy)-4-(4-methylthiazol-5-yl)benzyl)-1-((S)-2-(4-cyclopropyl-1H-1,2,3-triazol-1-yl)-3-methylbutanoyl)-4-hydroxypyrrolidine-2-carboxamide] the same measures were 98.4% and 97.9%.
As to `Cc1ncsc1-c1ccc(CNC(=O)[C@@H]2C[C@@H](O)CN2C(=O)[C@H](C(C)C)n2cc(C3CC3)nn2)c(OC2CCN(C(=O)C3CCN(c4nccc(Sc5cnc(N6CCC(C)(N)CC6)cn5)c4Cl)CC3)CC2)c1` [Example 102, (2S,4R)—N-(2-((1-(1-(4-((5-(4-amino-4-methylpiperidin-1-yl)pyrazin-2-yl)thio)-3-chloropyridin-2-yl)piperidine-4-carbonyl)piperidin-4-yl)oxy)-4-(4-methylthiazol-5-yl)benzyl)-1-((S)-2-(4-cyclopropyl-1H-1,2,3-triazol-1-yl)-3-methylbutanoyl)-4-hydroxypyrrolidine-2-carboxamide], the SHP2% degradation is, setting by setting: (0.01 μM) 99.4%; (0.1 μM) 99.8%.
The corresponding values for `Cc1cc(C(C(=O)N2C[C@H](O)C[C@H]2C(=O)NCc2ccc(-c3scnc3C)cc2OC2CCN(C(=O)C3CCN(c4nccc(Sc5cnc(N6CCC(C)(N)CC6)cn5)c4Cl)CC3)CC2)C(C)C)on1` (stereo partly drawn) [Example 94, (2S,4R)—N-(2-((1-(1-(4-((5-(4-amino-4-methylpiperidin-1-yl)pyrazin-2-yl)thio)-3-chloropyridin-2-yl)piperidine-4-carbonyl)piperidin-4-yl)oxy)-4-(4-methylthiazol-5-yl)benzyl)-4-hydroxy-1-(3-methyl-2-(3-methylisoxazol-5-yl)butanoyl)pyrrolidine-2-carboxamide] are 95.5% and 100.0%.
For `Cc1ncsc1-c1ccc(CNC(=O)[C@@H]2C[C@@H](O)CN2C(=O)[C@@H](NC(=O)CC#N)C(C)(C)C)c(OC2CCN(C(=O)C3CCN(c4nccc(Sc5cnc(N6CCC7(CC6)CO[C@@H](C)[C@H]7N)c(CO)n5)c4Cl)CC3)CC2)c1` [Example 88, (2S,4R)—N-(2-((1-(1-(4-((5-((3S,4S)-4-amino-3-methyl-2-oxa-8-azaspiro[4.5]decan-8-yl)-6-(hydroxymethyl)pyrazin-2-yl)thio)-3-chloropyridin-2-yl)piperidine-4-carbonyl)piperidin-4-yl)oxy)-4-(4-methylthiazol-5-yl)benzyl)-1-((S)-2-(2-cyanoacetamido)-3,3-dimethylbutanoyl)-4-hydroxypyrrolidine-2-carboxamide] the same measures were 97.0% and 99.9%.
Consider `CC(=O)N[C@H](C(=O)N1C[C@H](O)C[C@H]1C(=O)NCc1ccc(-c2scnc2C)cc1O[C@H]1CC[C@H](C(=O)N2CC(Nc3nccc(Sc4cnc(N5CCC6(CC5)CO[C@@H](C)[C@H]6N)cn4)c3Cl)C2)CC1)C(C)(C)C` [Example 40, (2S,4R)-1-((S)-2-acetamido-3,3-dimethylbutanoyl)-N-(2-(((1R,4S)-4-(3-((4-((5-((3S,4S)-4-amino-3-methyl-2-oxa-8-azaspiro[4.5]decan-8-yl)pyrazin-2-yl)thio)-3-chloropyridin-2-yl)amino)azetidine-1-carbonyl)cyclohexyl)oxy)-4-(4-methylthiazol-5-yl)benzyl)-4-hydroxypyrrolidine-2-carboxamide], for which the SHP2% degradation by setting is: (0.01 μM) 94.2%; (0.1 μM) 95.9%.
The corresponding values for `CC(=O)N[C@H](C(=O)N1C[C@H](O)C[C@H]1C(=O)NCc1ccc(-c2scnc2C)cc1O[C@H]1CC[C@H](C(=O)N2CCC(Nc3nccc(Sc4cnc(N5CCC6(CC5)CO[C@@H](C)[C@H]6N)cn4)c3Cl)CC2)CC1)C(C)(C)C` [Example 43, (2S,4R)-1-((S)-2-acetamido-3,3-dimethylbutanoyl)-N-(2-(((1R,4S)-4-(4-((4-((5-((3S,4S)-4-amino-3-methyl-2-oxa-8-azaspiro[4.5]decan-8-yl)pyrazin-2-yl)thio)-3-chloropyridin-2-yl)amino)piperidine-1-carbonyl)cyclohexyl)oxy)-4-(4-methylthiazol-5-yl)benzyl)-4-hydroxypyrrolidine-2-carboxamide] are 94.3% and 95.9%.
